Laboratory results taken from patent publication US11253554B2, “Bacterial profile to detect fungal taxa abundance in the gut” (Virginia Commonwealth University, priority 2016, dated 2022).

What was measured:
[1] = test system: fungal taxa (stool mycobiome); assay: Cross-sectional study of outpatients with cirrhosis, fungal Shannon diversity; format: in vivo, human; details: outpatients with cirrhosis on rifaximin without SBP prophylaxis; vs SBPP 0.83±0.60
Description: (§1) Healthy controls that were age-matched were enrolled with two sets of patients with cirrhosis, outpatients and inpatients. Healthy controls were outpatients without any chronic diseases or medications. Patients with cirrhosis were included who were diagnosed using liver biopsy, evidence of frank decompensation or radiological features of cirrhosis who were between 21 and 75 years. Patients who were unable to give consent or provide stool within 48 hours of admission, with alcohol misuse, alcoholic hepatitis, on antifungal medications and with gastrointestinal bleeding episodes within 6 weeks were excluded. Also excluded were those undergoing HCV eradication or those on probiotics within the last 3 months. […]
Similarly, the ITS1 regions of the fungal 18S ribosomal RNA (rRNA) gene were sequenced on a PGM Ion Torrent Next-generation sequencer using Multitag fusion primers (ITS1F: 5′-[…]-3′ (SEQ ID NO:3); ITS2: 5′-[…]-3′ (SEQ ID NO:4)). Amplicons for 96 samples were sequenced together to generate >10,000×400 base reads per sample. The mycobiome is generally less diverse than the microbiome and thus required fewer reads to interrogate this community (Ghannoum M A, et al. PLoS pathogens 2010 6:e1000713). Greater than 1000 reads for bacteria and greater than 100 reads for fungi were used given the relatively lower abundance of fungal taxa as the lowest number chosen to be acceptable. […]

[2] = test system: bacterial taxa (stool microbiota); assay: Cross-sectional study of outpatients with cirrhosis, bacterial Shannon diversity; format: in vivo, human; details: outpatients with cirrhosis on rifaximin without SBP prophylaxis; vs SBPP 1.3±0.5
Description: as §1
(§2) Microbial DNA were isolated from stool samples as previously described (Gillevet P, et al. Chem Biodivers 2010 7:1065-75). […] Amplicons for 96 samples were then sequenced together to generate >20,000×400 base reads per sample.
The Microbiome Analysis Center's Portal was used to organize raw data, track clinical metadata, and track analysis between the groups at baseline and/if they develop infections and are resampled. […] The taxonomic identity of reference sequences were determined using the RDP11 Classifier (Wang Q et al. Appl Environ Microbiol 2007 73:5261-7) and QIIME Pipeline. […]

[3] = test system: fungal taxa (stool mycobiome); assay: Pre-PPI/post-PPI longitudinal study, stool ITS1 fungal community analysis; format: in vivo, human; details: after 14 days of 40 mg omeprazole daily
Description: (§3) The impact of PPI on fungal parameters were analyzed from a prior trial in which 40 mg of omeprazole was administered daily for 14 days in compensated outpatients with cirrhosis and healthy controls, (Bajaj J S, et al. Am J Physiol Gastrointest Liver Physiol 2014 307:G951-G957).
(§4) For all these studies, Shannon diversity indices for both bacterial and fungal taxa as well as LEFSe comparisons (Segata N, et al. Genome Biol 2011 12:R60) at baseline and the end of study were performed and compared.
Similarly, the ITS1 regions of the fungal 18S ribosomal RNA (rRNA) gene were sequenced on a PGM Ion Torrent Next-generation sequencer using Multitag fusion primers (ITS1F: 5′-[…]-3′ (SEQ ID NO:3); ITS2: 5′-[…]-3′ (SEQ ID NO:4)). Amplicons for 96 samples were sequenced together to generate >10,000×400 base reads per sample. The mycobiome is generally less diverse than the microbiome and thus required fewer reads to interrogate this community (Ghannoum M A, et al. PLoS pathogens 2010 6:e1000713). Greater than 1000 reads for bacteria and greater than 100 reads for fungi were used given the relatively lower abundance of fungal taxa as the lowest number chosen to be acceptable. […] A cutoff of 100 reads per sample was used as that was clearly above the negative control and is the break point in FIG. 6. […]

[4] = test system: bacterial taxa (stool microbiota); assay: Pre-PPI/post-PPI longitudinal study, stool 16S rRNA bacterial community analysis; format: in vivo, human; details: after 14 days of 40 mg omeprazole daily
Description: as §3, §4, §2
The Microbiome Analysis Center's Portal was used to organize raw data, track clinical metadata, and track analysis between the groups at baseline and/if they develop infections and are resampled. […] The taxonomic identity of reference sequences were determined using the RDP11 Classifier (Wang Q et al. Appl Environ Microbiol 2007 73:5261-7) and QIIME Pipeline. […] Changes in abundance of individual bacterial and fungal taxa were also analyzed using traditional univariate statistical methods. […]

[5] = all subjects, 40 mg daily for 14 days, as reported in prior trial; cited from earlier work
[6] = Pre-PPI/post-PPI longitudinal study, clinical course; format: in vivo, human; details: patients with cirrhosis; before 8.1±2.7, p=0.41
Description: The impact of PPI on fungal parameters were analyzed from a prior trial in which 40 mg of omeprazole was administered daily for 14 days in compensated outpatients with cirrhosis and healthy controls, (Bajaj J S, et al. Am J Physiol Gastrointest Liver Physiol 2014 307:[…]-[…]).

CO[C@H]1/C=C/O[C@@]2(C)Oc3c(C)c(O)c4c(O)c(c5c(nc6cc(C)ccn65)c4c3C2=O)NC(=O)/C(C)=C\C=C\[C@H](C)[C@H](O)[C@@H](C)[C@@H](O)[C@@H](C)[C@H](OC(C)=O)[C@@H]1C [rifaximin]
fungal diversity (Shannon index) [1]: 0.77±0.77 | bacterial diversity (Shannon index) [2]: 1.32±0.51

COc1ccc2[nH]c([S+]([O-])Cc3ncc(C)c(OC)c3C)nc2c1 (centres unmarked) [omeprazole]
fungal diversity (Shannon index) post ([3]; healthy controls, pre 1.92±0.48, p=0.46): 1.73±0.61 | fungal diversity (Shannon index) post ([3]; patients with cirrhosis, pre 1.64±0.34, p=0.39): 1.45±0.38 | bacterial diversity (Shannon index) post ([4]; healthy controls, pre 1.88±0.16, p=0.004): 1.63±0.22 | bacterial diversity (Shannon index) post ([4]; patients with cirrhosis, pre 1.89±0.25, p=0.05): 1.54±0.34 | tolerability [5]: able to tolerate | MELD score after therapy [6]: 7.9±3.5
